Results on two molecules are retold here after patent publication US20250387388A1, “COMPOUND AS TRK INHIBITOR AND/OR RET INHIBITOR AND USE THEREOF” (Medinno Pharmaceutical Technology (Zhuhai) Co., Ltd., priority 2022, published 2025).

For one experiment, the target named is TRKA (Homo sapiens (Human), UniProt P04629). The conditions noted are these: reported; cited from earlier work.
The next experiment concerns the target JAK3 (Homo sapiens (Human), UniProt P52333). Conditions: reported; cited from earlier work.
The subject of the next experiment is adipocytes. The experiment in a line: Lipolysis in vitro in adipocytes. The format is cell-based, C57BL/6 mouse. Here is the method: Newly extracted neonatal C57BL/6 mouse skin fibroblasts (specific operational steps can be found in the literature: Cell Reports (2023)/doi: 10.1016/j.celrep.2023.112647) were plated and cultured in petri dishes until the cell density reached the highest and contact inhibition. Differentiation medium (DMEM+10% FBS+1× antibiotic; specific formula can be found in the literature: Cell Reports (2023)/doi: 10.1016/j.celrep.2023.112647) was then added to induce the generation of new adipocytes. […] The control group received an equal volume of DMSO. The transformation of adipocytes was observed using a Leica inverted phase contrast microscope.

Experiment [1] deals with atopic dermatitis/eczema in mice. As to the kind of experiment: Atopic dermatitis/eczema model in mice (dust mite extract + SEB). The experiment is classed as in vivo. The conditions noted are these: for Number of Scratch Incidents (±SE) / Scratch Duration (±SE) / Skin Erythema, Hemorrhage, Eruption, and Desquamation (Lesion Scoring) (Mean ± SE): Tofacitinib 10 mg/kg.

Chain of TRKA (P04629 33-796 limits assumed): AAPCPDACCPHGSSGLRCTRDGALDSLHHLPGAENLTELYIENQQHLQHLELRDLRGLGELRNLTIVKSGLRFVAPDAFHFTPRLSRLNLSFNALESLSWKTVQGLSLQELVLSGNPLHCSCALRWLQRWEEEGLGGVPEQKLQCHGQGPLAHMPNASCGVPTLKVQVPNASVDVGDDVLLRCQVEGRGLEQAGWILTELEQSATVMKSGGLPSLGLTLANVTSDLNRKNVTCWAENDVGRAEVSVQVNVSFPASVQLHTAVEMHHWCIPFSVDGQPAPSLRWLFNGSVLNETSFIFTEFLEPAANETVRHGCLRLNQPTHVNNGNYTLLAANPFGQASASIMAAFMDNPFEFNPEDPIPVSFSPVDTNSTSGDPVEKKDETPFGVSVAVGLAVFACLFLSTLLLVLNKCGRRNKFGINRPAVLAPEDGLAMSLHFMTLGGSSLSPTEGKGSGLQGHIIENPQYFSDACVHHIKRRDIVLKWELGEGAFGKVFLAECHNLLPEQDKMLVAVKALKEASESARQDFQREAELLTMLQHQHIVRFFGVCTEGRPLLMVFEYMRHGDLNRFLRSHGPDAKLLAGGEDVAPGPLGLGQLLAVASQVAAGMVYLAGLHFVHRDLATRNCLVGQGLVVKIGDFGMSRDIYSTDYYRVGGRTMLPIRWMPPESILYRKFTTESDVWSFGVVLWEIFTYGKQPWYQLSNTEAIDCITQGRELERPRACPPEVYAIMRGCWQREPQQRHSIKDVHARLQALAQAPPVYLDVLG
Chain of JAK3 (P52333 whole entry, species assumed): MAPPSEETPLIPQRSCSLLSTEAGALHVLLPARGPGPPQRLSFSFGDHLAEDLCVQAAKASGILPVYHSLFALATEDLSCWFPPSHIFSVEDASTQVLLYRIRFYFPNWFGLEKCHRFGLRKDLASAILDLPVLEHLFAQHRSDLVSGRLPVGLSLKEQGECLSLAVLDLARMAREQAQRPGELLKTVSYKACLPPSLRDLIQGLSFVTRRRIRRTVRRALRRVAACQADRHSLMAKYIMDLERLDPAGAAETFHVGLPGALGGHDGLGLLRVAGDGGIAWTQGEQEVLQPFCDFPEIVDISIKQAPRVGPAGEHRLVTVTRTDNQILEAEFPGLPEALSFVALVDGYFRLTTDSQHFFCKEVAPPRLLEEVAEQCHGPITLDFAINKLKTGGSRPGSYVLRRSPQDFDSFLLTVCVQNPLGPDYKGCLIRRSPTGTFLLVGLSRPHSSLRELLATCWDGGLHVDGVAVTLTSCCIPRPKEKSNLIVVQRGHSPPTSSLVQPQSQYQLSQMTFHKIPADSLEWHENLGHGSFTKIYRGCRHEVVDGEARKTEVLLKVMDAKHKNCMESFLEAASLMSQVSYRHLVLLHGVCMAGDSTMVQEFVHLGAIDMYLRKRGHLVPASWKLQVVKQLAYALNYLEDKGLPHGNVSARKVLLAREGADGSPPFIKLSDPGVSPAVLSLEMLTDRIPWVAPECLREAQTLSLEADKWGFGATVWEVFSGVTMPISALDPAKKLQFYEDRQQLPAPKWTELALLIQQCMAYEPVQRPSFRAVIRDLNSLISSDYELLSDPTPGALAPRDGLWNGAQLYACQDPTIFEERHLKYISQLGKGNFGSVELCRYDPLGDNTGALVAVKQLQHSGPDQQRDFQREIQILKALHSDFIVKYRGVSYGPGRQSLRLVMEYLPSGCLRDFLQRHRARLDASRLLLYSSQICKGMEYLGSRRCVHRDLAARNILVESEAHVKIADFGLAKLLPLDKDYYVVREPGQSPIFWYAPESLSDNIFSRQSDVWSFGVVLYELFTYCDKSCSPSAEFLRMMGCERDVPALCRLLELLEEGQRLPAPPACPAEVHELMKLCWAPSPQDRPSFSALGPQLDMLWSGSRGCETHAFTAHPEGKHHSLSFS

Regarding Pegcantratinib, on TRKA, the “Inhibition of TRKA” value is given as “capable of inhibiting”. The “Inhibition of JAK3” value on JAK3 is “capable of inhibiting”.
With `C[C@@H]1CCN(C(=O)CC#N)C[C@@H]1N(C)c1ncnc2[nH]ccc12` [Tofacitinib, reference compound], the “Lipolysis of differentiated mature adipocytes (phase contrast images)” value in the experiment on adipocytes (5 μM) is listed as “does not promote lipolysis”. Also, in the experiment on adipocytes (summary statement), the “Adipocyte lipolysis in vitro” value was “no similar effect”. The “Number of Scratch Incidents (±SE)” value in experiment [1] (Day 1) stood at 17.75 ± 0.86; in experiment [1] (Day 14) it was 26.7 ± 1.96. Moreover, the results for the “Scratch Duration (±SE)” value in experiment [1] (Day 1) and in experiment [1] (Day 14) were 278.25 ± 50.09 and 217.5 ± 47.85, respectively. Moreover, the “Skin Erythema, Hemorrhage, Eruption, and Desquamation (Lesion Scoring) (Mean ± SE)” value is 4.38 ± 0.46 in experiment [1] (Day 1), 2.63 ± 0.26 in experiment [1] (Day 4), 2.00 ± 0.33 in experiment [1] (Day 7) and 1.50 ± 0.19 in experiment [1] (Day 14). For the same molecule, in experiment [1] (MDI-1228 high-dose (3% gel), tofacitinib 10 mg/kg), the “Behavioral analysis (scratch incidents and scratch duration)” value is given as “did not show significant effects in the behavioral analysis”.
